The values that follow come from patent EP0000336A1, “N-benzylpyrimidinyl-amidines, process for their preparation and medicines containing them” (BASF Aktiengesellschaft, priority 1977, dated 1979).

This test has as its system Streptococcus agalactiae 7941. Kind of test: Aronson sepsis model in mice, sulfonamide potentiation compared with trimethoprim. Format: in vivo. The following applies: female mice (groups of 30), lethal dose of Streptococcus agalactiae 7941; treated 2 h after infection with 300 mg 2-Sulfanilamido-4,5-dimethyloxazol + 60 mg test substance; survivors after 44 h divided by survivors of the group given 300 mg 2-Sulfanilamido-4,5-dimethyloxazol + 60 mg Trimethoprim. From the text: Verwendet man beispielsweise N-[4-Amino-5-(3,4,5-trimethoxybenzyl)-pyrimidin-2-yl]-acetamidsäureäthylester und Anilin als Ausgangsstoffe, so kann der Reaktionsverlauf durch folgendes Formelschema wiedergegeben werden: [drawing 7] 2um Wirksamkeitsnachweis wurden erfindungsgemäße Substanzen im Tierversuch am Modell der sogenannten Aronson-Sepsis, wobei mit Streptococcus agalactiae infiziert wird, geprüft und mit dem bekannten Trimethoprim verglichen. Hierzu wurden Gruppen von je 30 weiblichen Mäusen mit einer tödlichen Dosis von Streptococcus agalactiae 7941 infiziert und 2 Stunden nach der Infektion mit einer Mischung von 300 mg 2-Sulfanilamido-4,5-dimethyloxazol + 60 mg einer der erfindungsgemäßen Substanzen behandelt. Außer einer nicht behandelten Kontrollgruppe wurde eine zweite Gruppe mit dem als Referenzsubstanz dienenden Gemisch von 300 mg 2-Sulfanilamido-4,5-dimethyloxazol + 60 mg Trimethoprim behandelt. Nach 44 Stunden wurde die Zahl der überlebenden Tiere bestimmt und diese Zahl durch die Zahl der überlebenden aus der mit der Referenzsubstanz behandelten Gruppe dividiert. Der so erhaltene Zahlenwert (Trimethoprimfaktor) ist ein Maß für die Wirkung der erfindungsgemäßen Substanzen im Vergleich zum Trimethoprim. F = 2 bedeutet also, daß die Substanz doppelt so wirksam ist wie Trimethoprim. […]

Consider `COc1cc(Cc2cnc(N=C(C)N(C)C)nc2N)cc(OC)c1OC` [Beispiel 1], for which the “F (Trimethoprimfaktor)” value is recorded as 1,2.
